This is an account of results in paper PMC6832134, “Discovery of Novel Integrase Inhibitors Acting outside the Active Site Through High-Throughput Screening” (Molecules, 2019).

One series deals with T1, HIV-1 integrase (Human immunodeficiency virus type 1 group M subtype B, UniProt P12497).
T1 construct: 250 nM of recombinant HIV-1 integrase; made in house; host or cells: E. coli RosettaII
Nature of the series: Electrochemiluminescent integrase strand transfer assay (BioVeris), high-throughput screen. In kind it is biochemical. Conditions: for inhibition at 10 µM: single dose 10 µM, read-out: inhibition of IN ST activity. The procedure: To enable a high-throughput screening, we used the ST assay developed by BioVeris. This proprietary plate-based assay measured stand transfer using electrochemiluminescent technology. First, we validated the assay using HIV-1 IN in the presence of DMSO, or increasing concentrations of a known inhibitor, MA-DKA (also known as 118-D-24, Figure 1A). […] Next, we used MA-DKA as a control in every test plate and screened a large library of molecules. Overall, 3095 compounds were tested as part of the NCI Developmental Therapeutics Program’s small molecule plated sets from the Open Chemical Repository Collection. […] A single dose testing (10 µM) enabled the identification of 130 molecules that inhibited ST by over 50% (light dashed line, Figure 1A). […] NSC153308 is a 2-phenacylsulfanylacetic acid that resembles the diketo acid chemotype. On the other side, NSC119889 is a xanthene derivative similar to V-165 [6]. […] However, the purpose of this study was to identify a new chemotype that might act on IN via a novel mechanism, distinct from known active site inhibitors. Accordingly, we retrieved the chemical structure of the 130 hits and looked for a chemical pattern different from that of conventional strand transfer inhibitors.
This electrochemiluminescent plate-based assay was performed using a BioVeris M-SERIES Analyzer (Gaithersburg, MD, USA). DNA substrates were obtained from BioVeris and used according to the manufacturer’s recommendations. Briefly, a biotinylated donor DNA was incubated for 30 min at 37 °C in the presence of 250 nM of recombinant HIV-1 integrase. Complexes were bound to paramagnetic streptavidin-coated beads (M-280 Dynabeads). After addition of the drug, the integration reaction was initiated by addition of a ruthenium-labeled target DNA. The reaction was carried out for 60 min at 37 °C, before reading on the BioVeris M-SERIES Analyzer.

For series [1], the target named is T2, HIV-1 IN (Human immunodeficiency virus type 1 group M subtype B, UniProt P12497).
T2 construct: 250 nM of recombinant HIV-1 integrase; made in house; host or cells: E. coli RosettaII
Set-up: method as in PMID 12920196. Conditions: ref [4], read-out: IC50, ST inhibition, cited from earlier work.

For series [2], the target named is T2, HIV-1 IN. More on the design: method as in PMID 12920196. To be noted: regardless of metal cofactor; ref [4]; read-out: IC50, inhibition of 3'-P; cited from earlier work.
The subject of series [3] is VSV pseudo-typed HIV-1 virus particles. Nature of the series: organism not typed. It is filed as cell-based. Conditions: for EC50: read-out: Ex Vivo Antiviral Activity EC50.
A further series concerns the target T3, HIV-1 IN (WT) (Human immunodeficiency virus type 1 group M subtype B, UniProt P12497).
T3 construct: 250 nM of recombinant HIV-1 integrase; made in house; host or cells: E. coli RosettaII
As to the kind of experiment: Gel-based IN strand transfer assay, WT enzyme. In kind it is biochemical. Conditions: gel-based assay, coupled ST, at least three independent experiments; read-out: In Vitro IC50 +/−SD, ST. As to the method: (§1) IN reactions were carried out by adding drugs or an equivalent volume of 100% DMSO (dimethyl sulfoxide, used as the drug solvent) to a mixture of 20 nM duplex DNA (21T/21B) and 400 nM IN in 50 mM MOPS pH 7.2, 7.5 mM MgCl2, and 14 mM 2-mercaptoethanol. Reactions were performed at 37 °C for 2 h and quenched by addition of an equal volume of loading buffer [formamide containing 1% SDS (sodium dodecyl sulfate), 0.25% bromophenol blue, and xylene cyanol]. Reaction products were separated in 16% polyacrylamide denaturing sequencing gels. Dried gels were visualized using a Typhoon 8600 (GE Healthcare, Piscataway, NJ, USA). Densitometric analyses were performed using the ImageQuant 5.1 software from GE Healthcare. Data analyses (linear regression, IC50 determination, and standard deviation) were performed using Prism 6.05 software from GraphPad.

A further series in a line: in vitro. Conditions: human.
In series [4] the target is T2, HIV-1 IN. Nature of the series: Gel-based IN 3'-processing assay. In kind it is biochemical. Conditions: at least three independent experiments, read-out: In Vitro IC50 +/−SD, 3'-P. The procedure:
as §1

For series [5], the system named is HIV-1 IN mutant N155H. Nature of the series: biochemical. In kind it is biochemical. To be noted: N155H vs WT, Figure 2B. As to the method: as §1
A further series deals with T4, HIV-1 IN mutant Y143R (Human immunodeficiency virus type 1 group M subtype B, UniProt P12497, Y1290R).
T4 construct: RAL-resistant HIV-1 mutant integrases; made in house; host or cells: E. coli RosettaII
As to the kind of experiment: Gel-based IN strand transfer assay, Y143R mutant. It is filed as biochemical. The procedure: as §1

Series [6] concerns the target T5, HIV-1 IN mutant N155H (Human immunodeficiency virus type 1 group M subtype B, UniProt P12497, N1302H).
T5 construct: RAL-resistant HIV-1 mutant integrases; made in house; host or cells: E. coli RosettaII
As to the kind of experiment: biochemical. It is filed as biochemical. The procedure:
as §1

The target in series [7] is T6, HIV-1 IN mutant G140S/Q148H (Human immunodeficiency virus type 1 group M subtype B, UniProt P12497, G1287S/Q1295H).
T6 construct: RAL-resistant HIV-1 mutant integrases; made in house; host or cells: E. coli RosettaII
As to the kind of experiment: Gel-based IN strand transfer assay, G140S/Q148H mutant. It is filed as biochemical. The procedure:
as §1

The target in series [8] is T2, HIV-1 IN. Nature of the series: Synergy test with the active site inhibitor MK-2048. In kind it is biochemical. Conditions: subinhibitory dose of stilbene disulfonic acid derivative; IC50 of MK-2048 not affected; data not shown.

Several values for one entry are separate records, joined by “and”; a condition that tells them apart may be missing. Equal entries are not always repeated. Where two headings read alike, the source gives them in different places. Bounds are passed on as bounds.

Regarding `O=C(O)C(=O)CC(=O)c1cccn1Cc1ccc(F)cc1` [MA-DKA], at HIV-1 integrase (at 10 µM, obtained from linear regression of the dose response in Figure 1A), the “inhibition of IN ST activity” value was determined as 94.8%. Further, the IC50 at HIV-1 integrase (electrochemiluminescent plate-based assay, dose response, read-out: IC50, ST inhibition) was 163 nM; at HIV-1 IN [1] (magnesium as cofactor), 330 nM; at HIV-1 IN [1] (manganese as cofactor) it was 70 nM; on HIV-1 IN [2], 70000 nM.
For `CCOc1ccc(/N=N/c2ccc(/C=C/c3ccc(/N=N/c4ccc(OCC)cc4)cc3S(=O)(=O)O)c(S(=O)(=O)O)c2)cc1` [NSC47745], in series [3], the “Selectivity Index SI” value is greater than 6.5 and the EC50 turned out to be 15300 nM. For the same molecule, the IC50 at HIV-1 IN (WT) was ~3000 nM and 3100 nM. The molecule also yielded a CC50 in the series “in vitro” greater than 100000 nM. In addition, the IC50 on HIV-1 IN [4] was ~3000 nM and 3200 nM.
Regarding `O=S(=O)(O)c1cc(/N=N/c2cc(S(=O)(=O)O)c3cccnc3c2O)ccc1/C=C/c1ccc(/N=N/c2cc(S(=O)(=O)O)c3cccnc3c2O)cc1S(=O)(=O)O` [NSC638352], the inhibition at 10 µM on HIV-1 integrase worked out at 67.2%.
Same read-out and setting: as for `O=C(O)CSCC(=O)c1ccccc1` [NSC153308], the figure is 99.5%.
Turning to `Nc1ccc(/C=C/c2ccc(N)cc2S(=O)(=O)O)c(S(=O)(=O)O)c1` [NSC163], the IC50 on HIV-1 IN (WT) and on HIV-1 IN [4] was greater than 111000 nM in each case.
As to `O=C(Nc1ccc(Sc2ccc(/N=N/c3c(O)c(S(=O)(=O)O)cc4cc(S(=O)(=O)O)ccc34)cc2)cc1)c1ccc(/N=N/c2c(O)ccc3c(S(=O)(=O)O)cc(S(=O)(=O)O)cc23)cc1` [NSC76027], the inhibition at 10 µM at HIV-1 integrase is 62.8%.
In the case of `Cc1nnc(C(=O)NC(C)(C)c2nc(C(=O)NCc3ccc(F)cc3)c(O)c(=O)n2C)o1` [RAL, raltegravir, reference compound], in the series on HIV-1 IN mutant N155H [5], the “loss of potency compared to the WT enzyme” value is “one to two orders of magnitude”.
Regarding `Nc1ccc(/N=N/c2ccc(/C=C/c3ccc(/N=N/c4ccc(N)c5ccc(S(=O)(=O)O)cc45)cc3S(=O)(=O)O)c(S(=O)(=O)O)c2)c2cc(S(=O)(=O)O)ccc12` [NSC34933], the “Selectivity Index SI” value in series [3] is greater than 166. Moreover, the EC50 in series [3] was determined as 600 nM. Further, the IC50 at HIV-1 IN mutant Y143R was found to be 95 nM; at HIV-1 IN (WT), 500 ± 200 nM; at HIV-1 IN mutant N155H [6], 91 nM; in series [7], 320 nM; on HIV-1 IN [4], 1100 ± 300 nM. This molecule also came in with a CC50 in “in vitro” greater than 100000 nM. Moreover, on HIV-1 IN [8], the “synergy with active site inhibitor MK-2048” value is on record as “could not see any cooperative effect”.
In the case of `O=C(O)c1c(Br)c(Br)c(Br)c(Br)c1C1c2ccc(O)cc2Oc2cc(O)ccc21` [NSC119889], the inhibition at 10 µM on HIV-1 integrase was found to be 98.5%.
In the case of `O=[N+]([O-])c1ccc(/C=C/c2ccc([N+](=O)[O-])cc2S(=O)(=O)O)c(S(=O)(=O)O)c1` [NSC163175], the IC50 at HIV-1 IN (WT) and at HIV-1 IN [4] was greater than 111000 nM each time.

For orientation: EC50 means the concentration that produces a half-maximal response. Broadly, the inhibition is the drop in the measured response relative to a control, in per cent.
